Experimental data from patent US12338203B2 (TAISHO PHARMACEUTICAL CO., LTD., priority 2019, dated 2025).

molecular target: T1, human LPAR1 (Homo sapiens, UniProt Q92633); test: Test Example 1: antagonism against response of LPA-induced increase in intracellular Ca2+ concentration in RH7777 cells stably expressing human LPAR1; assay type: cell-based; settings: not given
T1 construct: expressed in transfected cells
Description: (1) Preparation of RH7777 cells stably expressing human LPAR1
The human LPAR1 expression vector was transfected into RH7777 cells to acquire human LPAR1 expressing cells.
(2) Test of antagonism against response of LPA-induced increase in intracellular Ca^2+ concentration
Cells stably expressing human LPAR1 were used for a test of antagonism against response of LPA-induced increase in intracellular Ca^2+ concentration.
The cells were seeded onto the Poly-D-Lysine 96 well black plate and incubated overnight. […] 50 μL of the Basal Buffer (1×HBSS, 20 mM HEPES, 2.5 mM Probenecid, 0.05% BSA, 0.25 mg/mL Amaranth, pH 7.4) containing the test compound was added thereto, followed by incubation at 37° C. for 30 minutes. In FDSS6000 (Hamamatsu Photonics K.K.), LPAs were added, and the change in intracellular Ca^2+ concentration was detected using the fluorescence value of a wavelength of 540 nm by an excitation wavelength of 480 nm as an indicator. […] The Rmax under […] without the test compound was used as the control value. The Rmax under Basal Buffer stimulation with no LPAs or test compounds was used as the basal value.
The percentage (%) of increase in intracellular Ca^2+ concentration was calculated by dividing the value obtained by subtracting the basal value from Rmax in the presence of LPAs and each concentration of the test compound by the value obtained by subtracting the basal value from the control value. The concentration of each test compound was plotted on the X axis and the percentage (%) of increase in intracellular Ca^2+ concentration was plotted on the Y axis, and the IC50 value was calculated by nonlinear regression using XLfit.

T1 sequence (Q92633 whole entry): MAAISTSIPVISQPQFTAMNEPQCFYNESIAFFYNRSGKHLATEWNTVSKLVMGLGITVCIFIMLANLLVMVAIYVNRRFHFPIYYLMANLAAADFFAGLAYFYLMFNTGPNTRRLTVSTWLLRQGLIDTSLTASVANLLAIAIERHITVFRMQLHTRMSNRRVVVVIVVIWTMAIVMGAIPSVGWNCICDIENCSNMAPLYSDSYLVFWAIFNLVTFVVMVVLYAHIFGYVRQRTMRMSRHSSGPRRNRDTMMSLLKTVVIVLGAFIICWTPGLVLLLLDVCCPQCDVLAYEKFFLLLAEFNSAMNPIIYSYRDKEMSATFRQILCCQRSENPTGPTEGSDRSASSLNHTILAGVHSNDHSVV

Compound | IC50
COc1cc(C(C)N(CCCCc2ccccc2)C(=O)NC2(C(=O)O)CC(F)(F)C2)cc(OC)c1C (stereo not drawn) [Example 1-66] | 3.96 nM

same assay, conditions: RH7777 cells stably expressing human LPAR1; Fluo-4 fluorescence, FDSS6000; read-out: IC50 value (concentration producing 50% antagonism against response of LPA-induced increase in intracellular Ca2+ concentration) (converted)

Compound | IC50
COc1cc(C(C)N(CCCCc2ccccc2)C(=O)NC2(C(=O)O)CC(F)(F)C2)cnc1C#N (stereo not drawn) [Example 5-90] | 143 nM
CCOc1cc([C@@H](C)N(CCCCc2ccccc2)C(=O)N[C@H]2COC[C@H]2C(=O)O)cc(OCC)c1C(C)=O [Example 1-161] | 9.64 nM
CCOc1cc([C@@H](C)N(Cc2cc3ccccc3[nH]2)C(=O)NC2(C(=O)O)CC(F)(F)C2)cc(OCC)c1C [Example 4-32] | 733 nM
CCOc1c(C(C)=O)ccc([C@@H](C)N(CCCCc2ccccc2)C(=O)NC2(C(=O)O)CC(OC)C2)c1C (stereo partly drawn) [Example 1-94] | 11.8 nM
COc1cc(CN(CCCCc2ccccc2)C(=O)NCC(C(=O)O)C(C)C)cc(OC)c1C (stereo not drawn) [Example 1-14] | 5690 nM
CCOc1cc([C@@H](C)N(CCCCc2ccccc2)C(=O)NC2(c3nnn[nH]3)CC(F)(F)C2)cc(OCC)c1C(C)O (stereo partly drawn) [Example 10-9, N-{(1R)-1-[3,5-Diethoxy-4-(1-Hydroxyethyl)Phenyl]Ethyl}-N′-[3,3-Difluoro-1-(1H-Tetrazol-5-Yl)Cyclobutyl]-N-(4-Phenylbutyl) Urea] | 4.69 nM
CCOc1cc([C@@H](C)N(CCOCc2ccccc2)C(=O)NC2(C(=O)O)CC(F)(F)C2)c(Cl)c(OCC)c1C(C)O (single isomer, unassigned) [Example 5-55] | 1.09 nM
CC(c1cc(C(F)(F)F)cc(C(F)(F)F)c1)N(CCCCc1ccccc1)C(=O)NC1(C(=O)O)CC(F)(F)C1 (stereo not drawn) [Example 5-24] | 75.8 nM
CCOc1cc([C@@H](C)N(CCCC(F)(F)c2ccccc2)C(=O)NC2(C(=O)O)CCC2)cc(OCC)c1C1CC1 [Example 4-51] | 1.11 nM
CCOc1cc([C@@H](C)N(CCO[C@@H](C)c2ccccc2)C(=O)NC2(C(=O)O)CC(OCC)C2)cc(OCC)c1C(C)=O (stereo partly drawn) [Example 4-132] | 5.62 nM
CCOc1c(C(C)=O)ccc([C@@H](C)N(CCCC(F)(F)c2ccccc2)C(=O)NC2(C(=O)O)CC(OCC)C2)c1C (stereo partly drawn) [Example 4-72] | 3.34 nM
CCO[C@H]1C[C@@](NC(=O)N(CCOCc2ccccc2)C(C)c2cc(OC)c(C(C)=O)c(OC)c2Cl)(C(=O)O)C1 (stereo partly drawn) [Example 5-127] | 3.94 nM
Cc1cc(C)cc(CN(CCCCc2ccccc2)C(=O)NC2(C(=O)O)CCCC2)c1 [Example 5-23] | 3930 nM
CCOc1c(C(C)=O)ccc([C@@H](C)N(CCO[C@H](C)c2ccccc2)C(=O)NC2(C(=O)O)CC(F)(F)C2)c1C [Example 4-151] | 2.62 nM
CCOc1c(C(C)=O)ccc([C@@H](C)N(CCO[C@@H](C)c2ccccc2)C(=O)NC2(C(=O)O)CC(OC)C2)c1C (stereo partly drawn) [Example 4-130] | 6.66 nM
CCOc1cc([C@@H](C)N(CCCCc2ccccc2)C(=O)NC2CC(C(=O)O)N(C(C)=O)C2)cc(OCC)c1C(C)=O (stereo partly drawn) [Example 1-163] | 20.5 nM
CCOc1cc(C(C)N(CCO[C@@H](C)c2ccccc2)C(=O)NC2(C(=O)OC(C)(C)C)CC(F)(F)C2)c(Cl)c(OCC)c1C(C)=O (stereo partly drawn) [Example 6-17] | 10200 nM
CCOc1cc([C@@H](C)N(CCc2ccc(Cl)cc2)C(=O)NC2(C(=O)O)CC(F)(F)C2)cc(OCC)c1C [Example 4-11] | 126 nM
CCOc1c(C2CC2)ccc([C@@H](C)N(CCO[C@H](C)c2cccc(Cl)c2)C(=O)NC2(C(=O)O)CCC2)c1C [Example 4-180] | 6.22 nM
CCOc1cc([C@@H](C)N(CCCCc2ccccc2)C(=O)NC2(c3nn[nH]n3)CC(F)(F)C2)c(Cl)c(OCC)c1C(C)O (stereo partly drawn) [Example 10-11] | 8.1 nM
CCOc1cc(C(C)N(CCO[C@@H](C)c2ccccc2)C(=O)NC2(C(=O)OC(C)(C)C)CC(F)(F)C2)cc(OCC)c1C(C)=O (stereo partly drawn) [Example 6-16] | 13000 nM
CCOc1cc([C@@H](C)N(CCCCc2ccccc2)C(=O)NC2(C(=O)O)CC(OC)C2)cc(OCC)c1C1(O)CC1 (stereo partly drawn) [Example 1-90] | 9.18 nM

More lines, now with the values ahead:

IC50 | Compound
4.09 nM | CCOc1cc([C@@H](C)N(CCCCc2ccccc2)C(=O)NC2(C(=O)O)CCCC2)cc(OCC)c1C [Example 1-113]
3.17 nM | CCOc1cc([C@@H](C)N(CCO[C@@H](C)c2ccccc2)C(=O)N[C@]2(C(=O)O)C[C@@H](OCC)C2)c(Cl)c(OCC)c1C(C)O (single isomer, unassigned) [Example 5-61]
3.49 nM | COc1cc(C(C)N(CCOCc2ccccc2)C(=O)NC2(C(=O)O)CC(F)(F)C2)cc(OC)c1C(C)=O (stereo not drawn) [Example 5-141]
50.5 nM | CCOc1cc([C@@H](C)N(CCCC(F)(F)c2ccccc2)C(=O)NC2(C(=O)O)CCOCC2)cc(OCC)c1C1(O)CC1 [Example 4-74]
2.47 nM | CCOc1cc([C@@H](C)N(CCCCc2ccccc2)C(=O)NC2(C(=O)O)CC(F)(F)C2)cc(OCC)c1CC [Example 1-48]
3.35 nM | CCOc1cc([C@@H](C)N(CCO[C@@H](C)c2ccccc2)C(=O)N[C@]2(C(=O)O)C[C@@H](OC)C2)cc(OCC)c1C(C)=O [Example 4-121]
17.6 nM | CCOc1cc([C@@H](C)N(CCCCc2cccnc2)C(=O)NC2(C(=O)O)CC(F)(F)C2)cc(OCC)c1C [Example 4-29]
3040 nM | CCOc1cc(C(C)N(CCO[C@@H](C)c2ccccc2)C(=O)NC2(C(=O)OC(C)(C)C)CC2)c(Cl)c(OCC)c1C(C)=O (stereo partly drawn) [Example 6-13]
1.21 nM | CCOc1cc([C@@H](C)N(CCCC(F)(F)c2ccccc2)C(=O)NC2(C(=O)O)CC2)cc(OCC)c1C1CC1 [Example 4-46]
1580 nM | COc1cc(CN(CCCCc2ccccc2)C(=O)NC(CC(F)(F)F)C(=O)O)cc(OC)c1C (stereo not drawn) [Example 1-6]
2.43 nM | COc1cc(C(C)N(CCOCc2ccccc2)C(=O)NC2(C(=O)O)CC(F)(F)C2)c(C)c(OC)c1C(C)=O (stereo not drawn) [Example 5-145]
16.8 nM | COc1cc([C@@H](C)N(CCCCc2ccccc2)C(=O)NC2(C(=O)O)CCCC2)cc(OC)c1C [Example 1-117]
21.9 nM | CCOc1cc([C@@H](C)N(CCO[C@@H](C)c2ccccc2)C(=O)N[C@]2(C(=O)O)C[C@@H](OCC)C2)cc(OCC)c1C1(O)CC1 [Example 4-137]
1.71 nM | CCNc1cc(C(C)N(CCCCc2ccccc2)C(=O)NC2(C(=O)O)CCC2)cc(OCC)c1C(C)=O (stereo not drawn) [Example 5-103]
2.54 nM | CCOc1cc([C@@H](C)N(CCCCc2ccccc2)C(=O)NC2(C(=O)O)CC(F)(F)C2)c(Cl)c(OCC)c1C(C)O (single isomer, unassigned) [Example 5-53]
3.66 nM | CCOC1CC(NC(=O)N(CCOCc2ccccc2)C(C)c2cc(OC)c(C3CC3)c(OC)c2)(C(=O)O)C1 (stereo not drawn) [Example 5-162]
3.42 nM | CCOc1cc([C@@H](C)N(CCCCc2ccccc2)C(=O)NC2(C(=O)NS(N)(=O)=O)CC(F)(F)C2)cc(OCC)c1C(C)=O [Example 7-4, 1-({[(1R)-1-(4-Acetyl-3,5-Diethoxyphenyl)Ethyl](4-Phenylbutyl) Carbamoyl}Amino)-3,3-Difluoro-N-Sulfamoylcyclobutane-1-Carboxamide]
272 nM | CCOc1cc(C(C)N(CCO[C@@H](C)c2ccccc2)C(=O)NC2(C(=O)OC)CC(OCC)C2)c(Cl)c(OCC)c1C(C)=O (stereo partly drawn) [Example 6-5]
5.57 nM | CCOc1cc([C@@H](C)N(CCC2Cc3ccccc3C2)C(=O)NC2(C(=O)O)CC(OC)C2)c(C)c(OCC)c1C(C)=O (stereo partly drawn) [Example 4-24]
12.2 nM | CCNc1cc(C(C)N(CCCCc2ccccc2)C(=O)NC2(C(=O)O)CCS(=O)(=O)CC2)cc(OCC)c1C(C)=O (stereo not drawn) [Example 5-105]
1.31 nM | CCOc1cc([C@@H](C)N(CCOCc2ccccc2)C(=O)NC2(C(=O)O)CC(F)(F)C2)cc(OCC)c1C(C)O (stereo partly drawn) [Example 4-104]
37.2 nM | CCOc1cc([C@@H](C)N(C(=O)NC2(C(=O)O)CC(F)(F)C2)C2CC(Cc3ccccc3)C2)cc(OCC)c1C (stereo partly drawn) [Example 4-43]
45.4 nM | CCOc1cc(OCC)cc([C@@H](C)N(CCCCc2ccccc2)C(=O)NC2(C(=O)O)Cc3ccccc3C2)c1 [Example 5-12]
3.13 nM | CCOc1cc([C@@H](C)N(CCCCc2ccccc2)C(=O)NC2CCC2C(=O)O)cc(OCC)c1C(C)=O (stereo partly drawn) [Example 1-126]
177 nM | CCOc1cc([C@H](C)N(CCCCc2ccccc2)C(=O)NC2(C(=O)O)CC(F)(F)C2)cc(OCC)c1C(C)=O [Example 1-31, 1-({[(1S)-1-(4-Acetyl-3,5-Diethoxyphenyl)Ethyl](4-Phenylbutyl) Carbamoyl}Amino)-3,3-Difluorocyclobutane-1-Carboxylic Acid]
21.3 nM | CCOc1cc([C@@H](C)N(CCO[C@@H](C)c2ccccc2)C(=O)NC2(C(=O)O)CC(OC)C2)cc(OCC)c1C1(O)CC1 (stereo partly drawn) [Example 4-127]
272 nM | CCOc1cc(C(C)N(CCCCc2ccccc2)C(=O)NC2(C(=O)NS(=O)(=O)N(C)C)CCCC2)cc(OCC)c1C (stereo not drawn) [Example 7-5, 1-({[1-(3,5-Diethoxy-4-Methylphenyl)Ethyl](4-Phenylbutyl) Carbamoyl}Amino)-N-(Dimethylsulfamoyl)Cyclopentane-1-Carboxamide]
18.7 nM | CCOc1cc(C(C)N(CCCCc2ccccc2)C(=O)NC2(C(=O)O)CCCC2)cc(OCC)c1C (stereo not drawn) [Example 1-112]
